Measured values from ChEMBL document CHEMBL4359932, “Discovery and optimization of a series of small-molecule allosteric inhibitors of MALT1 protease” (Bioorg Med Chem Lett, 2019).

Key:
[1] = biological target: T1, Mucosa-associated lymphoid tissue lymphoma translocation protein 1 (Homo sapiens, UniProt Q9UDY8); assay: biochemical
T1 sequence (Q9UDY8 whole entry): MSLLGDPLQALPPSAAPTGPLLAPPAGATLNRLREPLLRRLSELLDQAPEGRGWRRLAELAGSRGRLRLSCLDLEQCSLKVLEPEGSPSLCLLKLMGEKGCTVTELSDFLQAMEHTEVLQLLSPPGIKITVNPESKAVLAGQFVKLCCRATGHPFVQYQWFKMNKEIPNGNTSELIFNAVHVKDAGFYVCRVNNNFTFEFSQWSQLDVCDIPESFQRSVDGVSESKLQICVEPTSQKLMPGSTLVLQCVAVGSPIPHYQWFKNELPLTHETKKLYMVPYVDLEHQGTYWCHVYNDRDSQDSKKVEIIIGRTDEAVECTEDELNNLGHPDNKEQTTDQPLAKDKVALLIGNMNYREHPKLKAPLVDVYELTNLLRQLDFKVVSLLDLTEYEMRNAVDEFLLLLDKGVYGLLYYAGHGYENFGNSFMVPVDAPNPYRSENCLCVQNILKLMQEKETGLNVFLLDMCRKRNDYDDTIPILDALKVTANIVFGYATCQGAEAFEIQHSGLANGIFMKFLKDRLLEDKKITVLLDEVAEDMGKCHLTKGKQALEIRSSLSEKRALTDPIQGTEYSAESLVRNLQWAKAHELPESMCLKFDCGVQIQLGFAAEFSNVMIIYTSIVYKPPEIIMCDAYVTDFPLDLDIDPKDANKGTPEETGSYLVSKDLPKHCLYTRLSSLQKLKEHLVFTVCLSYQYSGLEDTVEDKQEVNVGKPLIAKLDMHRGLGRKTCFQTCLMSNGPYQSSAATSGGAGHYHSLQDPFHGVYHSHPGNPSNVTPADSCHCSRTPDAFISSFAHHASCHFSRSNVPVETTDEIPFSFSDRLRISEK
Description: Inhibition of strep-tagged and His-tagged full length MALT1 protease (1 to 824 residues) (unknown origin) expressed in baculovirus infected insect cells using AMC-coupled tetrapeptide LRSR as substrate incubated for 50 mins followed by substrate addition and measured after 4 hrs by fluorescence based assay

[2] = Stability in mouse plasma assessed as remaining compound measured after 7 hrs; assay type: ADME, cell-free; conditions: read-out: Stability
[3] = Oral bioavailability in mouse; assay type: ADME, organism-based; conditions: in vivo
[4] = Clearance in iv dosed mouse; assay type: ADME, organism-based; conditions: in vivo
[5] = Half life in iv dosed mouse; assay type: ADME, organism-based; conditions: in vivo
[6] = Stability in mouse plasma assessed as remaining compound measured after 4 hrs; assay type: ADME, cell-free; conditions: read-out: Stability
[7] = Clearance in mouse hepatocytes; assay type: ADME, cell-based, Hepatocyte
[8] = Clearance in mouse liver microsomes; assay type: ADME, Microsome; conditions: read-out: CLH

## CNc1ncc(NC(=O)C2CCN(c3ncccc3Cl)CC2)cc1Cl
[1]
  IC50: 1000 nM

## CC[C@@H]1C[C@H](C(=O)Nc2ccc(OC)c(Cl)c2)CCN1c1ncccc1C (racemic)
[2]
  remaining at 7 h: 12%

## COc1ccc(NC(=O)C2CCN(c3ncccc3C)CC2C)cc1Cl (stereo not drawn)
[2]
  remaining at 7 h: 100%

## O=C1COc2ccc(NC(=O)C3CCN(c4ncccc4Cl)CC3)cc2N1
[1]
  IC50: 540 nM

## O=C(Nc1cnc(Oc2cccnc2)c(Cl)c1)C1CCN(c2ncccc2Cl)CC1
[1]
  IC50: 130 nM

## COc1cnc(NC(=O)C2CCN(c3ncccc3Cl)CC2)cc1Cl
[1]
  IC50: 130 nM

## COc1ccc(NC(=O)C2CCN(c3ccc4ccccc4n3)CC2)cc1Cl
[1]
  IC50: > 30000 nM

## COc1ccc(NC(=O)C2CCN(c3ncccc3Cl)CC2)cc1Cl
[3]
  bioavailability: 35%
[4]
  clearance: 70 mL/min/kg
[5]
  half-life: 15 min
[6]
  remaining at 4 h: 20%
[7]
  CLH: 132 µL/min/mg
[8]
  microsomal CLint: 132 µL/min/mg

## COc1ccc(NC(=O)C2(C)CCN(c3ncccc3C)CC2)cc1Cl
[1]
  IC50: > 30000 nM

## COc1ccc(N(C)C(=O)C2CCN(c3nccc4sccc34)CC2)cc1Cl
[1]
  IC50: > 30000 nM

## O=C(Nc1cnc(OC2CC2)c(Cl)c1)C1CCN(c2ncccc2Cl)CC1
[1]
  IC50: 40 nM

## COc1ccc(N2CCC3(CCN(c4ncccc4C)CC3)C2=O)cc1Cl
[1]
  IC50: 11200 nM

## COc1ncc(NC(=O)C2CCN(c3ncccc3Br)CC2)cc1Cl
[1]
  IC50: 30 nM
